Measurements reported in the supplement of paper PMC10307832.

Columns and labels:
Test in all cases: relative viability (nuclei count vs DMSO), 5 days (fraction); higher = more cells survive
[1] = compound: CC(C)C[C@H](NC(=O)[C@H](Cc1ccccc1)NC(=O)c1cnccn1)B(O)O [Bortezomib] + CC(=O)c1c(C)c2cnc(Nc3ccc(N4CCNCC4)cn3)nc2n(C2CCCC2)c1=O [Palbociclib] (partner 0.5 µM)
Method in brief: (§1)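 Lung cancer cell lines in 1536-well plates were dosed by pin tool the day after seeding, either with one drug alone or with a fixed anchor-drug dose plus five library-drug doses (not always all listed) in √10 steps. After 5 days, cells were fixed and their nuclei stained in one step (final 0.05% Triton X-100, 1% formaldehyde, 1 ug/ml Hoechst), then counted on 4× images. Relative viability is the nuclei count in treated wells divided by that in vehicle wells. Values are medians of duplicate plates.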

[2] = compound: CC(C)C[C@H](NC(=O)[C@H](Cc1ccccc1)NC(=O)c1cnccn1)B(O)O [Bortezomib] + O=C(CCCCCCC(=O)Nc1ccccc1)NO [Vorinostat] (partner 1 µM)
Method in brief: as §1

[3] = compound: COC1=CC(c2cc3ccccc3[nH]2)=N/C1=C\c1[nH]c(C)cc1C [Obatoclax] + N=C(N)NC(=N)NCCc1ccccc1 [Phenformin] (partner 250 µM)
Method in brief: as §1

[4] = compound: COC1=CC(c2cc3ccccc3[nH]2)=N/C1=C\c1[nH]c(C)cc1C [Obatoclax] + O=C(c1cc(Cc2n[nH]c(=O)c3ccccc23)ccc1F)N1CCN(C(=O)C2CC2)CC1 [Olaparib] (partner 8 µM)
Method in brief: as §1

Cell Line: HARA
- relative viability ([1]; first compound 0.0002 µM): 0.185
- relative viability ([1]; first compound 0.000632 µM): 0.253
- relative viability ([1]; first compound 0.002 µM): 0.288
- relative viability ([1]; first compound 0.006325 µM): 0.166
- relative viability ([1]; first compound 0.02 µM): 0.152
- relative viability ([2]; first compound 0.0002 µM): 0.512
- relative viability ([2]; first compound 0.000632 µM): 0.672
- relative viability ([2]; first compound 0.002 µM): 0.175
- relative viability ([2]; first compound 0.006325 µM): 0.0466
- relative viability ([2]; first compound 0.02 µM): 0.0668
- relative viability ([3]; first compound 0.01 µM): 0.427
- relative viability ([3]; first compound 0.03162 µM): 0.432
- relative viability ([3]; first compound 0.1 µM): 0.463
- relative viability ([3]; first compound 0.3162 µM): 0.455
- relative viability ([3]; first compound 1 µM): 0.357
- relative viability ([4]; first compound 0.01 µM): 0.639
- relative viability ([4]; first compound 0.03162 µM): 0.962
- relative viability ([4]; first compound 0.1 µM): 1.03
- relative viability ([4]; first compound 0.3162 µM): 0.99
- relative viability ([4]; first compound 1 µM): 0.89

Cell Line: HCC-15
- relative viability ([1]; first compound 0.0002 µM): 0.622
- relative viability ([1]; first compound 0.000632 µM): 0.769
- relative viability ([1]; first compound 0.002 µM): 0.689
- relative viability ([1]; first compound 0.006325 µM): 0.104
- relative viability ([1]; first compound 0.02 µM): 0.0904
- relative viability ([2]; first compound 0.0002 µM): 0.864
- relative viability ([2]; first compound 0.000632 µM): 0.892
- relative viability ([2]; first compound 0.002 µM): 0.729
- relative viability ([2]; first compound 0.006325 µM): 0.107
- relative viability ([2]; first compound 0.02 µM): 0.094
- relative viability ([3]; first compound 0.01 µM): 0.486
- relative viability ([3]; first compound 0.03162 µM): 0.432
- relative viability ([3]; first compound 0.1 µM): 0.348
- relative viability ([3]; first compound 0.3162 µM): 0.438
- relative viability ([3]; first compound 1 µM): 0.327
- relative viability ([4]; first compound 0.01 µM): 0.734
- relative viability ([4]; first compound 0.03162 µM): 0.769
- relative viability ([4]; first compound 0.1 µM): 0.694
- relative viability ([4]; first compound 0.3162 µM): 0.763
- relative viability ([4]; first compound 1 µM): 0.704

Cell Line: HCC-44
- relative viability ([1]; first compound 0.0002 µM): 1.02
- relative viability ([1]; first compound 0.000632 µM): 1.02
- relative viability ([1]; first compound 0.002 µM): 0.943
- relative viability ([1]; first compound 0.006325 µM): 0.759
- relative viability ([1]; first compound 0.02 µM): 0.278
- relative viability ([2]; first compound 0.0002 µM): 1.07
- relative viability ([2]; first compound 0.000632 µM): 1.07
- relative viability ([2]; first compound 0.002 µM): 1.1
- relative viability ([2]; first compound 0.006325 µM): 0.557
- relative viability ([2]; first compound 0.02 µM): 0.328
- relative viability ([3]; first compound 0.01 µM): 0.268
- relative viability ([3]; first compound 0.03162 µM): 0.185
- relative viability ([3]; first compound 0.1 µM): 0.0802
- relative viability ([3]; first compound 0.3162 µM): 0.14
- relative viability ([3]; first compound 1 µM): 0.111
- relative viability ([4]; first compound 0.01 µM): 0.965
- relative viability ([4]; first compound 0.03162 µM): 0.988
- relative viability ([4]; first compound 0.1 µM): 0.966
- relative viability ([4]; first compound 0.3162 µM): 0.969
- relative viability ([4]; first compound 1 µM): 0.94

Cell Line: HCC-78
- relative viability ([1]; first compound 0.0002 µM): 0.517
- relative viability ([1]; first compound 0.000632 µM): 0.531
- relative viability ([1]; first compound 0.002 µM): 0.444
- relative viability ([1]; first compound 0.006325 µM): 0.451
- relative viability ([1]; first compound 0.02 µM): 0.405
- relative viability ([2]; first compound 0.0002 µM): 0.453
- relative viability ([2]; first compound 0.000632 µM): 0.447
- relative viability ([2]; first compound 0.002 µM): 0.263
- relative viability ([2]; first compound 0.006325 µM): 0.281
- relative viability ([2]; first compound 0.02 µM): 0.276
- relative viability ([3]; first compound 0.01 µM): 0.8
- relative viability ([3]; first compound 0.03162 µM): 0.634
- relative viability ([3]; first compound 0.1 µM): 0.868
- relative viability ([3]; first compound 0.3162 µM): 0.642
- relative viability ([3]; first compound 1 µM): 0.67
- relative viability ([4]; first compound 0.01 µM): 0.836
- relative viability ([4]; first compound 0.03162 µM): 0.952
- relative viability ([4]; first compound 0.1 µM): 1.26
- relative viability ([4]; first compound 0.3162 µM): 0.668
- relative viability ([4]; first compound 1 µM): 0.855

Cell Line: HCC-366
- relative viability ([1]; first compound 0.0002 µM): 0.352
- relative viability ([1]; first compound 0.000632 µM): 0.319
- relative viability ([1]; first compound 0.002 µM): 0.372
- relative viability ([1]; first compound 0.006325 µM): 0.0727
- relative viability ([1]; first compound 0.02 µM): 0.0268
- relative viability ([2]; first compound 0.0002 µM): 0.352
- relative viability ([2]; first compound 0.000632 µM): 0.377
- relative viability ([2]; first compound 0.002 µM): 0.33
- relative viability ([2]; first compound 0.006325 µM): 0.113
- relative viability ([2]; first compound 0.02 µM): 0.026
- relative viability ([3]; first compound 0.01 µM): 0.581
- relative viability ([3]; first compound 0.03162 µM): 0.565
- relative viability ([3]; first compound 0.1 µM): 0.657
- relative viability ([3]; first compound 0.3162 µM): 0.628
- relative viability ([3]; first compound 1 µM): 0.478
- relative viability ([4]; first compound 0.01 µM): 0.322
- relative viability ([4]; first compound 0.03162 µM): 0.366
- relative viability ([4]; first compound 0.1 µM): 0.316
- relative viability ([4]; first compound 0.3162 µM): 0.334
- relative viability ([4]; first compound 1 µM): 0.272

Cell Line: HCC-827
- relative viability ([1]; first compound 0.0002 µM): 0.496
- relative viability ([1]; first compound 0.000632 µM): 0.626
- relative viability ([1]; first compound 0.002 µM): 0.467
- relative viability ([1]; first compound 0.006325 µM): 0.197
- relative viability ([1]; first compound 0.02 µM): 0.137
- relative viability ([2]; first compound 0.0002 µM): 0.802
- relative viability ([2]; first compound 0.000632 µM): 0.883
- relative viability ([2]; first compound 0.002 µM): 0.799
- relative viability ([2]; first compound 0.006325 µM): 0.814
- relative viability ([2]; first compound 0.02 µM): 0.182
- relative viability ([3]; first compound 0.01 µM): 0.424
- relative viability ([3]; first compound 0.03162 µM): 0.409
- relative viability ([3]; first compound 0.1 µM): 0.46
- relative viability ([3]; first compound 0.3162 µM): 0.373
- relative viability ([3]; first compound 1 µM): 0.435
- relative viability ([4]; first compound 0.01 µM): 0.594
- relative viability ([4]; first compound 0.03162 µM): 0.542
- relative viability ([4]; first compound 0.1 µM): 0.628
- relative viability ([4]; first compound 0.3162 µM): 0.581
- relative viability ([4]; first compound 1 µM): 0.221

Cell Line: HOP-62
- relative viability ([1]; first compound 0.0002 µM): 0.437
- relative viability ([1]; first compound 0.000632 µM): 0.492
- relative viability ([1]; first compound 0.002 µM): 0.307
- relative viability ([1]; first compound 0.006325 µM): 0.0611
- relative viability ([1]; first compound 0.02 µM): 0.0516
- relative viability ([2]; first compound 0.0002 µM): 0.589
- relative viability ([2]; first compound 0.000632 µM): 0.654
- relative viability ([2]; first compound 0.002 µM): 0.6
- relative viability ([2]; first compound 0.006325 µM): 0.131
- relative viability ([2]; first compound 0.02 µM): 0.0601
- relative viability ([3]; first compound 0.01 µM): 0.693
- relative viability ([3]; first compound 0.03162 µM): 0.699
- relative viability ([3]; first compound 0.1 µM): 0.604
- relative viability ([3]; first compound 0.3162 µM): 0.662
- relative viability ([3]; first compound 1 µM): 0.404
- relative viability ([4]; first compound 0.01 µM): 0.292
- relative viability ([4]; first compound 0.03162 µM): 0.352
- relative viability ([4]; first compound 0.3162 µM): 0.434
- relative viability ([4]; first compound 1 µM): 0.405
